Assay results published in ChEMBL document CHEMBL5550210, “Discovery of Novel α,β-Unsaturated Amide Derivatives as Candidate Antifungals to Overcome Fungal Resistance” (J Med Chem, 2024).
Converted amounts (≈) assume the structure as drawn.

Key:
Candida albicans [1] = assay: Antifungal activity against Candida albicans CPCC400616 assessed as inhibition of fungal growth by CLSI protocol based microdilution method; assay type: functional
Candida albicans [2] = assay: Antifungal activity against Candida albicans SC5314 assessed as inhibition of fungal growth by CLSI protocol based microdilution method; assay type: functional
Candida parapsilosis = assay: Antifungal activity against Candida parapsilosis ATCC 22019 assessed as inhibition of fungal growth by CLSI protocol based microdilution method; assay type: functional; settings: Lodderomyces parapsilosis
Nakaseomyces glabratus = assay: Antifungal activity against Candida glabrata assessed as inhibition of fungal growth by CLSI protocol based microdilution method; assay type: functional
Pichia kudriavzevii = assay: Antifungal activity against Candida krusei AS 2.1045 assessed as inhibition of fungal growth by CLSI protocol based microdilution method; assay type: functional
Candida tropicalis = assay: Antifungal activity against Candida tropicalis CGMCC 2.3739 assessed as inhibition of fungal growth by CLSI protocol based microdilution method; assay type: functional
Cryptococcus neoformans = assay: Antifungal activity against Cryptococcus neoformans CGMCC2.3161 assessed as inhibition of fungal growth by CLSI protocol based microdilution method; assay type: functional
Aspergillus fumigatus = assay: Antifungal activity against Aspergillus fumigatus CGMCC 3.7795 assessed as inhibition of fungal growth by CLSI protocol based microdilution method; assay type: functional
Candida albicans [3] = assay: Antifungal activity against fluconazole-resistant Candida albicans CaR assessed as inhibition of fungal growth by CLSI based microdilution method; assay type: functional
Candida albicans [4] = assay: Antifungal activity against fluconazole-resistant Candida albicans 17 assessed as inhibition of fungal growth by CLSI based microdilution method; assay type: functional
Candida albicans [5] = assay: Antifungal activity against fluconazole-resistant Candida albicans 632 assessed as inhibition of fungal growth by CLSI based microdilution method; assay type: functional
Candida albicans [6] = assay: Antifungal activity against fluconazole-resistant Candida albicans 904 assessed as inhibition of fungal growth by CLSI based microdilution method; assay type: functional
Candida albicans [7] = assay: Antifungal activity against fluconazole-resistant Candida albicans 901 assessed as inhibition of fungal growth by CLSI based microdilution method; assay type: functional
[8] = Half life in mouse plasma measured at 180 mins; assay type: ADME, cell-free

Compound | MIC (Candida albicans [1]) [µg/mL] | MIC (Candida albicans [2]) [µg/mL] | MIC (Candida parapsilosis) [µg/mL] | MIC (Nakaseomyces glabratus) [µg/mL] | MIC (Pichia kudriavzevii) [µg/mL] | MIC (Candida tropicalis) [µg/mL] | MIC (Cryptococcus neoformans) [µg/mL] | MIC (Aspergillus fumigatus) [µg/mL] | MIC (Candida albicans [3]) [µg/mL] | MIC (Candida albicans [4]) [µg/mL] | MIC (Candida albicans [5]) [µg/mL] | MIC (Candida albicans [6]) [µg/mL] | MIC (Candida albicans [7]) [µg/mL] | half-life [8] [h]
O=C(/C=C/c1ccc(COC(Cn2ccnc2)c2ccc(Cl)cc2Cl)cc1)Nc1cccc(Br)c1 (configuration not stated) | 0.25 (≈ 0.438 µM) | 0.125 (≈ 0.219 µM) | 0.125 (≈ 0.219 µM) | 64 (≈ 112 µM) | 64 (≈ 112 µM) | 64 (≈ 112 µM) | 8 (≈ 14 µM) | 4 (≈ 7 µM) | 128 (≈ 224 µM) | 128 (≈ 224 µM) | 4 (≈ 7 µM) | 2 (≈ 3.5 µM) | 4 (≈ 7 µM) | –
O=C(/C=C/c1ccc(COC(Cn2ccnc2)c2ccc(Cl)cc2Cl)cc1)Nc1ccc(Cl)cc1 (configuration not stated) | 0.06 (≈ 0.114 µM) | 0.03 (≈ 0.0569 µM) | 0.125 (≈ 0.237 µM) | 8 (≈ 15.2 µM) | 4 (≈ 7.59 µM) | 1 (≈ 1.9 µM) | 2 (≈ 3.8 µM) | 0.5 (≈ 0.949 µM) | 8 (≈ 15.2 µM) | 128 (≈ 243 µM) | 0.5 (≈ 0.949 µM) | 0.5 (≈ 0.949 µM) | 1 (≈ 1.9 µM) | –
Clc1ccc(COC(Cn2ccnc2)c2ccc(Cl)cc2Cl)c(Cl)c1 (configuration not stated) [MICONAZOLE] | 0.25 (≈ 0.601 µM) | 0.03 (≈ 0.0721 µM) | 0.25 (≈ 0.601 µM) | 0.5 (≈ 1.2 µM) | 0.5 (≈ 1.2 µM) | 1 (≈ 2.4 µM) | 0.25 (≈ 0.601 µM) | 2 (≈ 4.81 µM) | – | – | – | – | – | > 6
Cc1ccc(NC(=O)/C=C/c2ccc(COC(Cn3ccnc3)c3ccc(Cl)cc3Cl)cc2)cc1 (configuration not stated) | 0.03 (≈ 0.0592 µM) | 0.06 (≈ 0.118 µM) | 0.125 (≈ 0.247 µM) | 16 (≈ 31.6 µM) | 16 (≈ 31.6 µM) | 64 (≈ 126 µM) | 0.125 (≈ 0.247 µM) | 16 (≈ 31.6 µM) | 4 (≈ 7.9 µM) | 1 (≈ 1.97 µM) | 0.25 (≈ 0.494 µM) | 2 (≈ 3.95 µM) | 1 (≈ 1.97 µM) | –
CCCNC(=O)/C=C/c1ccc(COC(Cn2ccnc2)c2ccc(Cl)cc2Cl)cc1 (configuration not stated) | 0.06 (≈ 0.131 µM) | 0.03 (≈ 0.0654 µM) | 0.125 (≈ 0.273 µM) | 8 (≈ 17.5 µM) | 4 (≈ 8.73 µM) | 8 (≈ 17.5 µM) | 4 (≈ 8.73 µM) | 4 (≈ 8.73 µM) | 64 (≈ 140 µM) | 32 (≈ 69.8 µM) | 2 (≈ 4.36 µM) | 16 (≈ 34.9 µM) | 16 (≈ 34.9 µM) | –
O=c1ccc2ccc(COC(Cn3ccnc3)c3ccc(Cl)cc3Cl)cc2o1 (configuration not stated) | 0.06 (≈ 0.144 µM) | 0.03 (≈ 0.0722 µM) | 0.5 (≈ 1.2 µM) | 0.5 (≈ 1.2 µM) | 2 (≈ 4.82 µM) | 0.25 (≈ 0.602 µM) | 2 (≈ 4.82 µM) | 1 (≈ 2.41 µM) | 1 (≈ 2.41 µM) | 4 (≈ 9.63 µM) | 4 (≈ 9.63 µM) | 1 (≈ 2.41 µM) | 4 (≈ 9.63 µM) | > 6
O=C(/C=C/c1ccc(COC(Cn2ccnc2)c2ccc(Cl)cc2Cl)cc1)Nc1ccc(F)cc1 (configuration not stated) | 0.06 (≈ 0.118 µM) | 0.03 (≈ 0.0588 µM) | 32 (≈ 62.7 µM) | 32 (≈ 62.7 µM) | 64 (≈ 125 µM) | 2 (≈ 3.92 µM) | 2 (≈ 3.92 µM) | 1 (≈ 1.96 µM) | 4 (≈ 7.84 µM) | 128 (≈ 251 µM) | 0.25 (≈ 0.49 µM) | 0.5 (≈ 0.98 µM) | 1 (≈ 1.96 µM) | –
Cc1ccccc1NC(=O)/C=C/c1ccc(COC(Cn2ccnc2)c2ccc(Cl)cc2Cl)cc1 (configuration not stated) | 0.125 (≈ 0.247 µM) | 0.03 (≈ 0.0592 µM) | 0.5 (≈ 0.987 µM) | 64 (≈ 126 µM) | 16 (≈ 31.6 µM) | 16 (≈ 31.6 µM) | 2 (≈ 3.95 µM) | 2 (≈ 3.95 µM) | 16 (≈ 31.6 µM) | 128 (≈ 253 µM) | 2 (≈ 3.95 µM) | 2 (≈ 3.95 µM) | 4 (≈ 7.9 µM) | –
COc1ccc(NC(=O)/C=C/c2ccc(COC(Cn3ccnc3)c3ccc(Cl)cc3Cl)cc2)cc1 (configuration not stated) | 0.03 (≈ 0.0574 µM) | 0.06 (≈ 0.115 µM) | 0.125 (≈ 0.239 µM) | 4 (≈ 7.66 µM) | 2 (≈ 3.83 µM) | 4 (≈ 7.66 µM) | 0.125 (≈ 0.239 µM) | 4 (≈ 7.66 µM) | 4 (≈ 7.66 µM) | 2 (≈ 3.83 µM) | 0.25 (≈ 0.479 µM) | 4 (≈ 7.66 µM) | 4 (≈ 7.66 µM) | –
CNC(=O)/C=C/c1ccc(COC(Cn2ccnc2)c2ccc(Cl)cc2Cl)cc1 (configuration not stated) | 0.25 (≈ 0.581 µM) | 0.125 (≈ 0.29 µM) | 4 (≈ 9.3 µM) | 32 (≈ 74.4 µM) | 16 (≈ 37.2 µM) | 8 (≈ 18.6 µM) | 8 (≈ 18.6 µM) | 8 (≈ 18.6 µM) | 128 (≈ 297 µM) | 128 (≈ 297 µM) | 4 (≈ 9.3 µM) | 16 (≈ 37.2 µM) | 16 (≈ 37.2 µM) | –
